This assay deals with acute erythro-leukemia (K562) cells. Kind of assay: Acute erythroleukemia (K562) mouse model, survival. Type of assay: in vivo, mice. As to the method:
Human acute erythro-leukemia (K562) and acute myeloid leukemia (KG1) cells (1×10^6) were injected intraperitoneally in immune-compromised mice. Engraftment was confirmed by complete blood counts, presence of anemia, and clinical assessment of animal behavior.
The mice (total n=120 for each model respectively) were randomized into four (n=30/group) treatment groups. Each treatment regimen was administered in a four week cycle with three weeks of treatment, one week off: • 1. Untreated (control) • 2. Coenzyme Q10 (4%, administered at 75 mg/kg, once/day by continuous infusion) • 3. Chemotherapy (cytarabine/AraC 25 mg/kg, 5×/week; and adriamycin/daunorubicin 5 mg/kg; 1×/wk) • 4. Coenzyme Q10 (4%, administered at 75 mg/kg, once/day by continuous infusion)+chemotherapy (cytarabine/AraC 25 mg/kg, 5×/week; and adriamycin/daunorubicin 5 mg/kg; 1×/wk)
All dosings were intravenous and followed a protocol of 3 week treatment followed by 1 week rest. Leukemia was monitored by pallor and blood smears, and hone marrow smears were performed post-mortem for analysis using Wright's stain. Survival results from the study of mice with acute erythroleukemia are show in FIG. 5. Day 1 is the first day of treatment with coenzyme Q10 and/or chemotherapy.

This is an account of results in patent US12653776B2, “Methods of treatment of cancer by continuous infusion of coenzyme Q10” (priority 2013, dated 2026).

As to coenzyme Q10, the survival result (coenzyme Q10 75 mg/kg/day continuous infusion + chemotherapy (cytarabine + daunorubicin) vs other groups incl. chemotherapy alone, p<0.00001) is listed as “significant increase in survival” and the survival entry (coenzyme Q10 alone (4%, 75 mg/kg once/day by continuous infusion) vs chemotherapy alone) is “relatively similar survival compared to chemotherapy alone”.
